Results as given in PubChem BioAssay (NCI).
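These data come from cells grown in 96-well plates and exposed to compound for 48 hours at five concentrations. Abbreviation: GI50, concentration required for 50% inhibition of growth. TGI is the concentration that stops growth completely.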

Experiments:
Assay in all cases: DTP human tumour cell line panel, 48 h
[1] = tested on: EKVX NSCLC
[2] = tested on: NCI-H23 lung
[3] = tested on: SK-OV-3 ovarian
[4] = tested on: SN12C renal
[5] = tested on: CCRF-CEM leukemia
[6] = tested on: RPMI-8226 leukemia
[7] = tested on: MDA-MB-231 breast
[8] = tested on: A549 NSCLC
[9] = tested on: 786-0 renal
[10] = tested on: SNB-75 CNS
[11] = tested on: NCI-H226 lung
[12] = tested on: OVCAR-3 ovarian
[13] = tested on: KM12 colon
[14] = tested on: UO-31 renal
[15] = tested on: MDA-MB-468 breast
[16] = tested on: HOP-92 NSCLC
[17] = tested on: SF-268 CNS
[18] = tested on: HT29 colon
[19] = tested on: SNB-19 CNS
[20] = tested on: CAKI-1 renal
[21] = tested on: PC-3 prostate
[22] = tested on: DU-145 prostate
[23] = tested on: LOX IMVI melanoma
[24] = tested on: NCI-H460 lung
[25] = tested on: NCI/ADR-RES ovarian
[26] = tested on: MOLT-4 leukemia
[27] = tested on: T-47D breast
[28] = tested on: SF-539 CNS
[29] = tested on: OVCAR-5 ovarian
[30] = tested on: A498 renal
[31] = tested on: UACC-62 melanoma
[32] = tested on: OVCAR-8 ovarian
[33] = tested on: HS 578T breast
[34] = tested on: HCT-15 colon
[35] = tested on: HCC-2998 colon
[36] = tested on: RXF 393 renal
[37] = tested on: OVCAR-4 ovarian
[38] = tested on: MALME-3M melanoma
[39] = tested on: IGROV1 ovarian
[40] = tested on: UACC-257 melanoma
[41] = tested on: TK-10 renal
[42] = tested on: K-562 leukemia
[43] = tested on: ACHN renal
[44] = tested on: MCF7 breast
[45] = tested on: MDA-MB-435
[46] = tested on: SK-MEL-5 melanoma
[47] = tested on: SF-295 CNS
[48] = tested on: NCI-H522 lung
[49] = tested on: HOP-62 NSCLC
[50] = tested on: SW-620 colon
[51] = tested on: SK-MEL-28 melanoma
[52] = tested on: BT-549 breast
[53] = tested on: COLO 205 colon
[54] = tested on: SK-MEL-2 melanoma
[55] = tested on: U251 CNS
[56] = tested on: HCT-116 colon
[57] = tested on: HL-60(TB) leukemia

## N/C(=N\c1nc2ccccc2s1)NC(=O)Nc1ccccc1[N+](=O)[O-]
[1]
  GI50: 248 nM
  TGI: 17900 nM
[2]
  GI50: 266 nM
  TGI: 16800 nM
[3]
  GI50: 236 nM
  TGI: 31100 nM
[4]
  GI50: 258 nM
  TGI: 12700 nM
[5]
  GI50: 55.5 nM
  TGI: 16600 nM
[6]
  GI50: 341 nM
  TGI: > 59900 nM
[7]
  GI50: 139 nM
  TGI: 4660 nM
[8]
  GI50: 346 nM
  TGI: 16900 nM
[9]
  GI50: 186 nM
  TGI: 13600 nM
[10]
  GI50: 36.3 nM
  TGI: 12500 nM
[11]
  GI50: 571 nM
  TGI: 9260 nM
[12]
  GI50: 51.4 nM
  TGI: 9130 nM
[13]
  GI50: 60.5 nM
  TGI: 14000 nM
[14]
  GI50: 244 nM
  TGI: 17100 nM
[15]
  GI50: 228 nM
  TGI: 573 nM
[16]
  GI50: 4580 nM
  TGI: 26300 nM
[17]
  GI50: 2360 nM
  TGI: 36800 nM
[18]
  GI50: 62.1 nM
  TGI: 645 nM
[19]
  GI50: 151 nM
  TGI: 19600 nM
[20]
  GI50: 63.5 nM
  TGI: 16100 nM
[21]
  GI50: 143 nM
  TGI: 28800 nM
[22]
  GI50: 327 nM
  TGI: 13400 nM
[23]
  GI50: 69.8 nM
  TGI: 11600 nM
[24]
  GI50: 56.8 nM
  TGI: 6760 nM
[25]
  GI50: 45 nM
  TGI: 345 nM
[26]
  GI50: 195 nM
  TGI: > 51300 nM
[27]
  GI50: 538 nM
  TGI: 25700 nM
[28]
  GI50: 39.9 nM
  TGI: 273 nM
[29]
  GI50: 376 nM
  TGI: 13100 nM
[30]
  GI50: 17200 nM
  TGI: 32800 nM
[31]
  GI50: 45.9 nM
  TGI: 14000 nM
[32]
  GI50: 201 nM
  TGI: 9440 nM
[33]
  GI50: 61.5 nM
  TGI: 18700 nM
[34]
  GI50: 48.2 nM
  TGI: 11300 nM
[35]
  GI50: 203 nM
  TGI: 6100 nM
[36]
  GI50: 47.2 nM
  TGI: 499 nM
[37]
  GI50: 8070 nM
  TGI: 42500 nM
[38]
  GI50: 103 nM
  TGI: 16700 nM
[39]
  GI50: 108 nM
  TGI: 12700 nM
[40]
  GI50: 12200 nM
  TGI: 25000 nM
[41]
  GI50: 12900 nM
  TGI: 28400 nM
[42]
  GI50: 42.4 nM
  TGI: > 100000 nM
[43]
  GI50: 111 nM
  TGI: 16300 nM
[44]
  GI50: 168 nM
  TGI: 12600 nM
[45]
  GI50: 24.2 nM
  TGI: 72.8 nM
[46]
  GI50: 52.7 nM
  TGI: 1590 nM
[47]
  GI50: 55 nM
  TGI: 10800 nM
[48]
  GI50: 33 nM
  TGI: 363 nM
[49]
  GI50: 104 nM
  TGI: 19600 nM
[50]
  GI50: 52.9 nM
  TGI: 19500 nM
[51]
  GI50: 1200 nM
  TGI: 20600 nM
[52]
  GI50: 202 nM
  TGI: 6560 nM
[53]
  GI50: 169 nM
  TGI: 781 nM
[54]
  GI50: 32.9 nM
  TGI: 3020 nM
[55]
  GI50: 55.5 nM
  TGI: 14000 nM
[56]
  GI50: 43.1 nM
  TGI: 6060 nM
[57]
  GI50: 34.1 nM
  TGI: > 100000 nM
